Measured values published in ChEMBL document CHEMBL4411289, “Antinociceptive Potential of Zinnia grandiflora” (2019).
Active and inactive are the calls of the source. The rule behind the calls is not given here.

Columns and labels:
[1] = tested on: Mus musculus; test: Antinociceptive activity in ICR mouse assessed as reduction in licking time at 31.6 mg/kg, po dosed 30 mins before formalin injection and by formalin test; type: functional; design: scale not given: the % may be the effect or the level left
[2] = tested on: Mus musculus; test: Antinociceptive activity in ICR mouse assessed as reduction in licking time during phase 1 (acute phase) at 3.16 to 31.6 mg/kg, po dosed 30 mins before formalin injection and by formalin test; type: functional, organism-based
[3] = tested on: Mus musculus; test: Antinociceptive activity in ICR mouse assessed as reduction in licking time during phase 2 (tonic response phase) at 3.16 to 31.6 mg/kg, po dosed 30 mins before formalin injection and by formalin test; type: functional, organism-based

## O=C(O)Cc1ccccc1Nc1c(Cl)cccc1Cl [DICLOFENAC]
[1]
  Activity: 40.9%

## C=C[C@@]1(C)[C@H]2OC(=O)C(=C)[C@H]([C@@H]2OC(=O)/C(C)=C\C)[C@H](OC(=O)C(C)C)[C@@H]1C(=C)C(=O)O
[2]
  Activity: Active
[3]
  Activity: Active
